This assay concerns the target T1, PDE9A2 (Homo sapiens, UniProt O76083).
T1 construct: purchased Reaction Biology Corporation, Malvern, Pa
The assay is described as follows: Phosphodiesterase enzyme screening assay, PDE9A2. In kind it is biochemical. The settings on record: read-out: Band (PDE9A2 IC50). From the text: Compounds of the invention were screened against PDE1A, PDE1B, PDE2A, PDE3A, PDE3B, PDE4A1A, PDE4B1, PDE4D3, PDE5A1, PDE6C, PDE7A, PDE8A1, PDE9A2, PDE10A2 AND PDE11A isoforms of the phosphodiesterase enzyme to determine activity and overall selectivity through comparative analysis. […] Where 8-methoxy-IBMX and Zaprinast were used as reference inhibitors.
The phosphodiesterase enzyme isoforms were obtained from a commercial retailer (Reaction Biology Corporation, Malvern, Pa.) for use in the instant screening assay.
The analysis was completed using the Caliper LabChip 3000 and a 12-sipper LabChip. LabChip assays are separations-based, meaning that the product and substrate are electrophoretically separated, thereby minimizing interferences and yielding the highest data quality available on any screening platform. […] High Z′ values, few false positives, few false negatives and analytical quality reproducibility are the reasons cited for the increasing reliance on the LabChip assays.
The off-chip incubation mobility-shift phosphodiesterase assay uses a microfluidic chip to measure the conversion of a fluorescent cyclic AMP substrate to a 5′-AMP product, or a cyclic GMP substrate to a 5′-GMP product. The reaction mixture, from a microtiter plate well, is introduced through a capillary sipper onto the chip, where the fluorescent substrate and product are separated by electrophoresis and detected via laser-induced fluorescence. […] The precision of microfluidics allows researchers to detect subtle interactions between drug candidates and therapeutic targets.
Reactions were carried out in 100 mM HEPES (pH 7.5), 5 mM MgCl2, 1 mM DTT, 0.003% Brij, 4.0 μM cGMP substrate. The reaction was started by addition of cGMP or cAMP and incubated for 1 hour at R.T. The reaction was terminated by the addition of stop buffer containing 100 mM HEPES (pH 7.5), 15 mM EDTA, 0.015% Brij-35, 5% DMSO. Cyclic AMP/GMP substrate and 5′-AMP/5′-GMP product were separated by charge using electrophoretic mobility shift. Product formed was compared to control wells to determine inhibition or enhancement of enzyme activity.
Data points were averages of quadruplicate wells and error bars represented the SEM for each point.

Where [1] appears, read: Table 1, 10 concentrations, 4.0 μM cGMP substrate, 1 hour at R.T.

Like-named read-outs stand apart in the source and are kept apart here.

Usually IC50 stands for the midpoint of a concentration-inhibition curve.

T1 sequence (O76083 1-533 isoform O76083-2): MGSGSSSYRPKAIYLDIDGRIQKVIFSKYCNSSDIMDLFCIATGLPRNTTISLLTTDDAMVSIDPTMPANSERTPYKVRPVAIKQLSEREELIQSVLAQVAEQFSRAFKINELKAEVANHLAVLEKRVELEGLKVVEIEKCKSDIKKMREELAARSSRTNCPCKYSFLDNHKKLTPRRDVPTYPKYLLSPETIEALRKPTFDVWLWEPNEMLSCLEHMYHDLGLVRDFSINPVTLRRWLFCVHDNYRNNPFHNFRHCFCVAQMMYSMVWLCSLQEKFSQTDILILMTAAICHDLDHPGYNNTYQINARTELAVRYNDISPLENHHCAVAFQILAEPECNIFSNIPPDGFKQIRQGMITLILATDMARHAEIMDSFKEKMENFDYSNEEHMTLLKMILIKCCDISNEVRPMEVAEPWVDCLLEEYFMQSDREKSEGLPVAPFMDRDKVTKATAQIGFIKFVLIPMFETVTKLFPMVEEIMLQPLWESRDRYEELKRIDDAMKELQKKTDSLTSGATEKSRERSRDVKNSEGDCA

For the molecule `CC1CN(S(=O)(=O)c2ccc(C#N)cc2)CC1c1nn2c(C3CCOCC3)ncc2c(=O)[nH]1` (single isomer, unassigned; (+)) [(+)-4-(((3,4-trans)-3-methyl-4-(4-oxo-7-(tetrahydro-2H-pyran-4-yl)-3,4-dihydroimidazo[5,1-f][1,2,4]triazin-2-yl)pyrrolidin-1-yl)sulfonyl)benzonitrile], under setting [1], the IC50 is > 10 µM.

Regarding `CC1CN(Cc2cn3ccccc3n2)CC1c1nn2c(-c3cccc(F)c3)ncc2c(=O)[nH]1` (single isomer, unassigned; (+)) [(+)-7-(3-fluorophenyl)-2-((3,4-trans)-1-(imidazo[1,2-a]pyridin-2-ylmethyl)-4-methylpyrrolidin-3-yl)imidazo[5,1-f][1,2,4]triazin-4(3H)-one], the IC50 is < 1 µM.

Regarding `CC1CN(Cc2ncccn2)CC1c1nn2c(-c3cccc(F)c3)ncc2c(=O)[nH]1` (single isomer, unassigned; (+)) [(+)-7-(3-fluorophenyl)-2-((3,4-trans)-4-methyl-1-(pyrimidin-2-ylmethyl)pyrrolidin-3-yl)imidazo[5,1-f][1,2,4]triazin-4(3H)-one], the IC50 was < 1 µM.

On to `CC1CN(Cc2ccccn2)CC1c1nn2c(-c3ccc(F)cc3)ncc2c(=O)[nH]1` (single isomer, unassigned; (+)) [(+)-7-(4-fluorophenyl)-2-((3,4-trans)-4-methyl-1-(pyridin-2-ylmethyl)pyrrolidin-3-yl)imidazo[5,1-f][1,2,4]triazin-4(3H)-one], for which the IC50 was in the range of 1 to 10 µM.

Consider `CC1CN(Cc2cccnc2)CC1c1nn2c(-c3ccc(F)cc3)ncc2c(=O)[nH]1` (single isomer, unassigned; (+)) [(+)-7-(4-fluorophenyl)-2-((3,4-trans)-4-methyl-1-(pyridin-3-ylmethyl)pyrrolidin-3-yl)imidazo[5,1-f][1,2,4]triazin-4(3H)-one], for which the IC50 is < 1 µM.

Take `Cc1ccc(F)cc1-c1ncc2c(=O)[nH]c(C3CN(Cc4ncccn4)CC3C)nn12` (single isomer, unassigned; (+)) [(+)-7-(5-fluoro-2-methylphenyl)-2-((3,4-trans)-4-methyl-1-(pyrimidin-2-ylmethyl)pyrrolidin-3-yl)imidazo[1,5-f][1,2,4]triazin-4(3H)-one]: the IC50 under setting [1] is < 1 µM.

Regarding `CC1CN(Cc2ccccc2)CC1c1nn2c(C3CCN(C(=O)OC(C)(C)C)CC3)ncc2c(=O)[nH]1` (single isomer, unassigned; (+)) [(+)-tert-butyl 4-(2-((3,4-trans)-1-benzyl-4-methylpyrrolidin-3-yl)-4-oxo-3,4-dihydroimidazo[1,5-f][1,2,4]triazin-7-yl)piperidine-1-carboxylate], under setting [1], the IC50 lay within 1 to 10 µM.

With `CC1CN(C(C)c2ccccc2)CC1c1nn2c(C3CCOCC3)ncc2c(=O)[nH]1` (single isomer, unassigned; (-)) [listing 1 of 2 here], the IC50 under setting [1] is < 1 µM.

As to `CC1CN(C(C)c2ccccc2)CC1c1nn2c(C3CCOCC3)ncc2c(=O)[nH]1` (single isomer, unassigned; (-)) [listing 2 of 2 here], the IC50 under setting [1] was < 1 µM.

Regarding `CC1CN(Cc2ccccc2)CC1c1nn2c(C3CCOC3)ncc2c(=O)[nH]1` (single isomer, unassigned; (-)) [(−)-2-(1-(3,4-trans)-benzyl-4-methylpyrrolidin-3-yl)-7-(tetrahydrofuran-3-yl)imidazo[5,1-f][1,2,4]triazin-4(3H)-one], the IC50 under setting [1] is 1 to 10 µM.

Consider `CC1CN(Cc2ccccc2F)CC1c1nn2c(C3CCOCC3)ncc2c(=O)[nH]1` (single isomer, unassigned; (-)) [(−)-2-((3,4-trans)-1-(2-fluorobenzyl)-4-methylpyrrolidin-3-yl)-7-(tetrahydro-2H-pyran-4-yl)imidazo[5,1-f][1,2,4]triazin-4(3H)-one], for which, under setting [1], the IC50 was < 1 µM.

Take `CC1CN(C(=O)c2ccc(F)cc2)CC1c1nn2c(C3CCOCC3)ncc2c(=O)[nH]1` (single isomer, unassigned; (-)) [(−)-2-((3,4-trans)-1-(4-fluorobenzoyl)-4-methylpyrrolidin-3-yl)-7-(tetrahydro-2H-pyran-4-yl)imidazo[5,1-f][1,2,4]triazin-4(3H)-one]: the half-inhibitory concentration (IC50) under setting [1] was < 1 µM.

As to `CC1CN(Cc2ccc(F)cc2)CC1c1nn2c(C3CCOCC3)ncc2c(=O)[nH]1` (single isomer, unassigned; (-)) [(−)-2-((3,4-trans)-1-(4-fluorobenzyl)-4-methylpyrrolidin-3-yl)-7-(tetrahydro-2H-pyran-4-yl)imidazo[5,1-f][1,2,4]triazin-4(3H)-one], under setting [1], the IC50 is < 1 µM.

With `CC1CN(S(=O)(=O)c2ccc(F)cc2)CC1c1nn2c(C3CCOCC3)ncc2c(=O)[nH]1` (single isomer, unassigned; (-)) [(−)-2-((3,4-trans)-1-((4-fluorophenyl)sulfonyl)-4-methylpyrrolidin-3-yl)-7-(tetrahydro-2H-pyran-4-yl)imidazo[5,1-f][1,2,4]triazin-4(3H)-one], under setting [1], the IC50 was 1 to 10 µM.

As to `COc1cccc(CN2CC(C)C(c3nn4c(C5CCOCC5)ncc4c(=O)[nH]3)C2)n1` (single isomer, unassigned; (-)) [(−)-2-((3,4-trans)-1-((6-methoxypyridin-2-yl)methyl)-4-methylpyrrolidin-3-yl)-7-(tetrahydro-2H-pyran-4-yl)imidazo[5,1-f][1,2,4]triazin-4(3H)-one], the IC50 under setting [1] was < 1 µM.

As for `CCS(=O)(=O)N1CC(C)C(c2nn3c(C4CCOCC4)ncc3c(=O)[nH]2)C1` (single isomer, unassigned; (-)) [(−)-2-((3,4-trans)-1-(ethylsulfonyl)-4-methylpyrrolidin-3-yl)-7-(tetrahydro-2H-pyran-4-yl)imidazo[5,1-f][1,2,4]triazin-4(3H)-one], under setting [1], the IC50 was < 1 µM.

Consider `CC1CN(Cc2ccc3nccn3n2)CC1c1nn2c(C3CCOCC3)ncc2c(=O)[nH]1` (single isomer, unassigned; (-)) [(−)-2-((3,4-trans)-1-(imidazo[1,2-b]pyridazin-6-ylmethyl)-4-methylpyrrolidin-3-yl)-7-(tetrahydro-2H-pyran-4-yl)imidazo[5,1-f][1,2,4]triazin-4(3H)-one], for which the IC50 under setting [1] is < 1 µM.

Take `CC1CN(C(=O)c2ccccc2)CC1c1nn2c(C3CCOCC3)ncc2c(=O)[nH]1` (single isomer, unassigned; (-)) [(−)-2-((3,4-trans)-1-benzoyl-4-methylpyrrolidin-3-yl)-7-(tetrahydro-2H-pyran-4-yl)imidazo[5,1-f][1,2,4]triazin-4(3H)-one]: under setting [1], the IC50 was < 1 µM.

As for `CC1CN(Cc2ccccc2)CC1c1nn2c(C3CCC(F)(F)CC3)ncc2c(=O)[nH]1` (single isomer, unassigned; (-)) [(−)-2-((3,4-trans)-1-benzyl-4-methylpyrrolidin-3-yl)-7-(4,4-difluorocyclohexyl)imidazo[5,1-f][1,2,4]triazin-4(3H)-one], the IC50 under setting [1] is < 1 µM.

Regarding `Cc1ccc(F)cc1-c1ncc2c(=O)[nH]c(C3CN(Cc4ccccc4)CC3C)nn12` (single isomer, unassigned; (-)) [(−)-2-((3,4-trans)-1-benzyl-4-methylpyrrolidin-3-yl)-7-(5-fluoro-2-methylphenyl)imidazo[1,5-f][1,2,4]triazin-4(3H)-one], the IC50 under setting [1] fell in the range of 1 to 10 µM.

As for `CC1CN(C(=O)c2ccncc2)CC1c1nn2c(C3CCOCC3)ncc2c(=O)[nH]1` (single isomer, unassigned; (-)) [(−)-2-((3,4-trans)-1-isonicotinoyl-4-methylpyrrolidin-3-yl)-7-(tetrahydro-2H-pyran-4-yl)imidazo[5,1-f][1,2,4]triazin-4(3H)-one], the IC50 under setting [1] is < 1 µM.

For `CC1CN(C(=O)c2ccccc2C#N)CC1c1nn2c(C3CCOCC3)ncc2c(=O)[nH]1` (single isomer, unassigned; (-)) [(−)-2-((3,4-trans)-3-methyl-4-(4-oxo-7-(tetrahydro-2H-pyran-4-yl)-3,4-dihydroimidazo[5,1-f][1,2,4]triazin-2-yl)pyrrolidine-1-carbonyl)benzonitrile], the IC50 under setting [1] was < 1 µM.

For `CC1CN(S(=O)(=O)c2ccccc2)CC1c1nn2c(C3CCOCC3)ncc2c(=O)[nH]1` (single isomer, unassigned; (-)) [(−)-2-((3,4-trans)-4-methyl-1-(phenylsulfonyl)pyrrolidin-3-yl)-7-(tetrahydro-2H-pyran-4-yl)imidazo[5,1-f][1,2,4]triazin-4(3H)-one], under setting [1], the IC50 is 1 to 10 µM.

Take `CC1CN(C(=O)c2cnccn2)CC1c1nn2c(C3CCOCC3)ncc2c(=O)[nH]1` (single isomer, unassigned; (-)) [(−)-2-((3,4-trans)-4-methyl-1-(pyrazine-2-carbonyl)pyrrolidin-3-yl)-7-(tetrahydro-2H-pyran-4-yl)imidazo[5,1-f][1,2,4]triazin-4(3H)-one]: under setting [1], the IC50 was < 1 µM.
